Key:
[1] = molecular target: T1, hERG potassium ion channel (Homo sapiens, UniProt Q12809); assay: FP-based hERG binding assay (Invitrogen kit)
T1 construct: purchased Invitrogen (assay run at TCG Lifesciences Pvt. Ltd.)
Method: Cardiovascular safety profile was entirely outsourced. hERG screening was performed at TCG Lifesciences Pvt. Ltd., Kolkata, West Bengal, India with FP-based hERG binding assay (Invitrogen kit).

HepG2 = assay: Metabolic activity assessment (cytotoxicity), HepG2; assay type: cell-based; details: Homo sapiens
Method: Cells of the HepG2 line (ATCC® HB-8065™) and HUVEC (ATCC® CRL-1730™) were cultured in Dulbecco’s Modified Eagle Medium (DMEM; Sigma-Aldrich, St. Louis, MO, USA) supplemented with 10% heat-deactivated FBS (Gibco, Grand Island, NE, USA), 2 mM L-glutamine, 100 U/mL penicillin, 100 μg/mL streptomycin (all from Sigma-Aldrich, St. Louis, MO, USA) in a humidified chamber at 37 °C and 5% CO2. The experiments were carried out on passages 7–9 for both cell lines. The tested compounds were dissolved in DMSO and further diluted in culture medium to a desired final concentration. Cells were seeded into 96-well plates at 8 × 10^4 cells/mL (100 μL/well) and incubated for 24 h to attach onto the wells. Cells were treated with 1 μM and 50 μM of each compound of interest or corresponding vehicle as control. […] The metabolic activity was assessed after 72 h treatment using the CellTiter 96 Aqueous One Solution Cell Proliferation Assay (Promega, Madison, WI, USA), in accordance with the manufacturer’s instructions. The absorbance was measured at 492 nm on an automated microplate reader BioTek Synergy HT (BioTek Instruments, Inc., Winooski, VT, USA). Data are presented as the percentage of metabolic activity of control cells stimulated with vehicle or as IC50 value (mean ± SD) from two independent experiments, each conducted in duplicate or triplicate. IC50 values were calculated by a non-linear regression model using Graph Pad Prism 7 software.

S. aureus DNA gyrase = molecular target: T2, S. aureus DNA gyrase (Staphylococcus aureus, UniProt P20831); assay: gel-based S. aureus Gyrase Supercoiling assay (Inspiralis); assay type: biochemical; details: gel-based assays by Inspiralis, as detailed in [13]
T2 construct: purchased Inspiralis (Norwich, UK)
T2 sequence (P20831 whole entry): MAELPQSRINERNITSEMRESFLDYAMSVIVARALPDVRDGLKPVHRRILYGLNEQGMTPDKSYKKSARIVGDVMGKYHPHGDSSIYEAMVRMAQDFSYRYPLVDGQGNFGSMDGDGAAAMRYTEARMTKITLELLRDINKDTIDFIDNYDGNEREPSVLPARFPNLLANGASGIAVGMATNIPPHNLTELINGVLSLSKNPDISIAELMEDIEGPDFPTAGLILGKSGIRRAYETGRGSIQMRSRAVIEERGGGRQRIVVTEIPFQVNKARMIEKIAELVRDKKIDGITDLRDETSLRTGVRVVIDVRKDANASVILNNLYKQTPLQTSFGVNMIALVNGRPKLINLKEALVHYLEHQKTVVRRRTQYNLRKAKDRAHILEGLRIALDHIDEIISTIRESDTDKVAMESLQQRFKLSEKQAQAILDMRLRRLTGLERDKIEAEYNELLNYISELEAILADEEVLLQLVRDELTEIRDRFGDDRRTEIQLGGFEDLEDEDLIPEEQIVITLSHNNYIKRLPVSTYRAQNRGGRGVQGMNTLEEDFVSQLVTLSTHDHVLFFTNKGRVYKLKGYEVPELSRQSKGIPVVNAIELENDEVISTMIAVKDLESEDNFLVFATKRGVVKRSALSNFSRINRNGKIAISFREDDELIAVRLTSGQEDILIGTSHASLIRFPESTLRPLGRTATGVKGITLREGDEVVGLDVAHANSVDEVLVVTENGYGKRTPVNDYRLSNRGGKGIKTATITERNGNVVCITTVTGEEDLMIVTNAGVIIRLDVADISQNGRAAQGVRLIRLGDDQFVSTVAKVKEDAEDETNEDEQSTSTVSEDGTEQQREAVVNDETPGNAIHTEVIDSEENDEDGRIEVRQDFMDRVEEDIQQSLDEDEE
T2 sequence (P0A0K8 whole entry partner): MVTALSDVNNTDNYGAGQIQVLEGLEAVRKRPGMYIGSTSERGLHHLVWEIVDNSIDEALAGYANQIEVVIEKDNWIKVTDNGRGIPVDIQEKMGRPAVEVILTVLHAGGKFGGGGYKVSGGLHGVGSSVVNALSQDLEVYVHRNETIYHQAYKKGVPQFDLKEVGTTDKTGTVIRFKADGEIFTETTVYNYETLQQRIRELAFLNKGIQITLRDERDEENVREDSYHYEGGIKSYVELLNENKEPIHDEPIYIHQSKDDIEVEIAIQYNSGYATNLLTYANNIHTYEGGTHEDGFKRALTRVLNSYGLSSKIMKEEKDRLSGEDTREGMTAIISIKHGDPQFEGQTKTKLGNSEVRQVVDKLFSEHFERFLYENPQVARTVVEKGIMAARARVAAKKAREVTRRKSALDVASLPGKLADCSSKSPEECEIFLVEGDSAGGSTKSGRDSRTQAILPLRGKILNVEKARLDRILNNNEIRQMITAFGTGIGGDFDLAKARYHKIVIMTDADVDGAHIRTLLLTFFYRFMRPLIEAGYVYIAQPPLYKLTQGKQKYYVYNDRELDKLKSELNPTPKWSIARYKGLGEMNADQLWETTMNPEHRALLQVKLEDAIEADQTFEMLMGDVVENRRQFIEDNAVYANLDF
Text: […]. […] IC50 value represents the mean of two to four independent measurements.

[2] = HepG2, metabolic activity after 72 h treatment
[3] = HepG2, 72 h, metabolic activity after 72 h treatment

T1 sequence (Q12809 whole entry): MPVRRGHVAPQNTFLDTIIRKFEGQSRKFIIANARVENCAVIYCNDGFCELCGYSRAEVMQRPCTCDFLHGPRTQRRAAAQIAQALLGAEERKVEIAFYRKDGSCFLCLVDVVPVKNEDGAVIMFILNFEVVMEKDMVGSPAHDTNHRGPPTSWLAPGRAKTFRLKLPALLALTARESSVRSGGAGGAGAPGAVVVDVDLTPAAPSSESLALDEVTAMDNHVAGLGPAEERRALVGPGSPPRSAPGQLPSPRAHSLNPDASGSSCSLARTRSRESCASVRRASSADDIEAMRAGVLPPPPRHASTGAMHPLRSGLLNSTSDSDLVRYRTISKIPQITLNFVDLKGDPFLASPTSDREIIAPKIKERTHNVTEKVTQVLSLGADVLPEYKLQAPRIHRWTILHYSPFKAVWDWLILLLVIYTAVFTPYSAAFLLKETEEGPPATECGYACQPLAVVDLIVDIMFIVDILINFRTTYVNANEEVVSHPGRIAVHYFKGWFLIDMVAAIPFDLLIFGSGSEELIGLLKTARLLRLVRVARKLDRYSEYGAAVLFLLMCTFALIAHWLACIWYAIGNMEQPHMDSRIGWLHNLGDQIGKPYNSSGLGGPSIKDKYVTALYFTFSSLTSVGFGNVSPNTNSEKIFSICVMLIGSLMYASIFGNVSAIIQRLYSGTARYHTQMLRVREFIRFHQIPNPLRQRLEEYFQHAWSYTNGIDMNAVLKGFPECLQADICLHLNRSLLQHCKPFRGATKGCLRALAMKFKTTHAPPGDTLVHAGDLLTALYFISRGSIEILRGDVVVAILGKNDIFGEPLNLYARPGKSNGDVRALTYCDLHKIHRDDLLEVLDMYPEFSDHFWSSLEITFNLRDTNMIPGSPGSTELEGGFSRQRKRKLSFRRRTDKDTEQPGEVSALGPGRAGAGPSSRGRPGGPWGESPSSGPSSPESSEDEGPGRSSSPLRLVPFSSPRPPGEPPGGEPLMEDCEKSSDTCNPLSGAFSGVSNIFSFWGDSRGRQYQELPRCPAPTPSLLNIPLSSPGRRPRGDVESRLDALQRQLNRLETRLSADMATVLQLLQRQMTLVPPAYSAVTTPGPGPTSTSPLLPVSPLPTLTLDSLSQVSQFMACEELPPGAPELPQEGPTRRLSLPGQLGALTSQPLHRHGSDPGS

For `COc1ccc2nccc(CCN3CCC(NCc4nc5ccccc5n4C)CC3)c2n1` [Compound 3, 1-(2-(6-Methoxy-1,5-naphthyridin-4-yl)ethyl)-N-((1-methyl-1H-benzo[d]imidazol-2-yl)methyl)piperidin-4-amine], the IC50 [1] was 1.04 µM.

Molecule `COc1ccc2nccc(CCN3CCC(NCc4cnn(-c5ccc(F)cc5)c4)CC3)c2n1` [Compound 4, N-((1-(4-Fluorophenyl)-1H-pyrazol-4-yl)methyl)-1-(2-(6-methoxy-1,5-naphthyridin-4-yl)ethyl)piperidin-4-amine] has an IC50 [1] of 0.33 µM and an IC50 (HepG2; [2]) of 4.64 ± 0.1 µM.

With `COc1ccc2nccc(CCN3CCC(NCc4cnn(-c5ccccc5)c4)CC3)c2n1` [Compound 5, 1-(2-(6-Methoxy-1,5-naphthyridin-4-yl)ethyl)-N-((1-phenyl-1H-pyrazol-4-yl)methyl)piperidin-4-amine] the IC50 [1] was 0.62 µM and the IC50 (HepG2; [2]) was 6.33 ± 0.19 µM.

With `COc1ccc2nccc(CCN3CCC(NCc4cnn(-c5ccccc5)n4)CC3)c2n1` [Compound 8, 1-(2-(6-Methoxy-1,5-naphthyridin-4-yl)ethyl)-N-((2-phenyl-2H-1,2,3-triazol-4-yl)methyl)piperidin-4-amine] the IC50 [1] was 0.37 µM and the IC50 (HepG2; [2]) was 17.1 ± 0.98 µM.

In the case of `COc1ccc2nccc(CCN3CCC(NCc4cnn(C(C)C)c4)CC3)c2n1` [Compound 9, N-((1-Isopropyl-1H-pyrazol-4-yl)methyl)-1-(2-(6-methoxy-1,5-naphthyridin-4-yl)ethyl)piperidin-4-amine], the IC50 [1] is reported as 9.82 µM and the IC50 (HepG2; [2]) is reported as greater than 50 µM.

Work on `C=CCn1cc(CNC2CCN(CCc3ccnc4ccc(OC)nc34)CC2)cn1` [Compound 10, N-((1-Allyl-1H-pyrazol-4-yl)methyl)-1-(2-(6-methoxy-1,5-naphthyridin-4-yl)ethyl)piperidin-4-amine] yielded an IC50 [1] of 6.62 µM and an IC50 (HepG2; [2]) greater than 50 µM.

`COc1ccc2nccc(CCN3CCC(NCc4ccc(I)cc4)CC3)c2n1` [Compound 15] gave an IC50 (S. aureus DNA gyrase) of 0.011 ± 0.003 µM and an IC50 (HepG2; [3]) of roughly 10 µM.

For `COc1ccc2nccc(CCN3CCC(NCc4ccc(CO)cc4)CC3)c2n1` [Compound 16], the IC50 [1] was 3.24 µM.

For `COc1ccc2nccc(CCN3CCC(NCc4ccc(OC(F)F)c(OC)c4)CC3)c2n1` [Compound 19, N-(4-(Difluoromethoxy)-3-methoxybenzyl)-1-(2-(6-methoxy-1,5-naphthyridin-4-yl)ethyl)piperidin-4-amine], the IC50 [1] was 0.46 µM and the IC50 (HepG2; [3]) was 6.31 ± 0.09 µM.

`COc1ccc2nccc(CCN3CCC(NCc4ccc(OC(F)F)c(O)c4)CC3)c2n1` [Compound 20, 2-(Difluoromethoxy)-5-((1-(2-(6-methoxy-1,5-naphthyridin-4-yl)ethyl)piperidin-4-ylamino)methyl)phenol] showed an IC50 [1] of 0.18 µM and an IC50 (HepG2; [3]) of 10.9 ± 0.12 µM.

Work on `COc1ccc2nccc(CCN3CCC(NCc4ccc(C(F)(F)F)nc4)CC3)c2n1` [Compound 21, 1-(2-(6-Methoxy-1,5-naphthyridin-4-yl)ethyl)-N-((6-(trifluoromethyl)pyridin-3-yl)methyl)piperidin-4-amine] yielded an IC50 [1] of 1.97 µM and an IC50 (HepG2; [2]) greater than 50 µM.

`COc1ccc(CNC2CCN(CCc3ccnc4ccc(OC)nc34)CC2)cn1` [Compound 22, 1-(2-(6-Methoxy-1,5-naphthyridin-4-yl)ethyl)-N-((6-methoxypyridin-3-yl)methyl)piperidin-4-amine] was tested, and the IC50 [1] was 3.05 µM and the IC50 (HepG2; [2]) was 32.03 ± 0.3 µM.

Source: publication PMC8300687, “A Fine-Tuned Lipophilicity/Hydrophilicity Ratio Governs Antibacterial Potency and Selectivity of Bifurcated Halogen Bond-Forming NBTIs” (Antibiotics, 2021)
